The source of these data is patent publication USRE42152E1, “Aromatic-linked polyamine macrocyclic compounds with anti-HIV activity” (Genzyme Corporation, priority 1992, dated 2011).

In brackets after ≈: the same amount, converted by molar mass. Read-outs that look alike come from different tables or passages of the source.

Series [1] relates to HIV uncoating (or fusion). Kind of series: Sensitivity of viral RNA from freshly infected MT4 cells to RNase degradation (uncoating). The settings on record: radiolabelled viral particles, RNA harvested 4 hours after infection. The format is cell-based. From the text: It was reasoned that if tincoating (fusion) was hampered, the viral capsid (or envelope) proteins would remain associated with the viral RNA genome and thus the RNA should be protected against RNase attack.

A further series relates to HIV-1 strain IIIb. The series can be described thus: Time-of-addition experiment, MT4 cells infected with HIV-1 IIIb, p24 antigen. The format is cell-based. The note with it: HIV-1 IIIb at high multiplicity, p24 at 29 hours after infection. As to the method:
To pinpoint the stage at which the compounds interact with the HIV replicative cycle, a time-of-addition experiment was carried out on MT4 cells infected with HIV-1 strain IIIb at high virus multiplicity to ensure that the virus replicative steps would be synchronised in the whole cell populations. Test compounds wife added 1, 2, 3, . . . 22, 23, 24 hours after infection, and vital p24 antigen production determined 29 hours after infection.
Depending on the stage at which compounds interact and the need for intracellular metabolism, addition of the compounds could be delayed for n hours without loss of activity.

The subject of another series is HIV-1, strain IIIb. Kind of series: microbe, parasite or virus in culture. Type of series: cell-based. As to the method: Adsorption was allowed for 2 hours at 37° C. […] Test compound was added after stimulation and virus adsorption.
(§1) IC50 and IC90 values were calculated by comparing the p24 antigen concentrations in supernatent of treated, infected cells and uncreated, infected cells at days 11 and 14 post infection.

Another series concerns HIV-1, BaL. Kind of series: microbe, parasite or virus in culture. The format is cell-based. As to the method: Mononuclear cells were isolated from healthy, HIV-negative donors using Ficoll density separation. Cells (4×10^6/ml) were incubated for 5 days in 48 well plates (Costar) in monocyte medium consisting of RPMII640, supplemented with 20% ECS and 10% human serum. On day 5 non-adherent cells were washed out four times with warm PBS containing 2% human serum.
The monocytotropic strain of HIV-1, BaL, was used for the infection of these monocyte preparations (Pemo et al, 1 Exp Meal, 169, 933, 1989).
Adherent monocytes were exposed to […] of a 1:30 dilution of HIV-1, BaL for 30 minutes subsequently, monocyte medium was added to 1 ml/well. Adsorption was allowed for 24 hours at 37° C. Then, the wells were washed twice in order to remove excess virus and were cultivated in the presence of different drug concentrations. Thus, test compounds were added after adsorption. Every 3 to 4 days post infection the supernatant of the infected cultures was removed and replaced by fresh medium containing the test compound at the particular concentration. The concentration of viral p24 antigen was determined as described above.
as §1

The next series relates to MT-4 cells. Kind of series: Cytotoxicity by MTT method in MT-4 cells. Type of series: cell-based.
Another series relates to Jurkat cells. Kind of series: Growth of exponentially growing cells (cell numbers). The format is cell-based.
In a further series the test system is HIV-1 (HTLV-IIIB). Kind of series: microbe, parasite or virus in culture. The format is cell-based. The note with it: MT-4 cells, 100 CCID50, 5 days, MTT.
In series [2] the test system is HIV-1 IIIb, RF, HE and NDK strains. Kind of series: microbe, parasite or virus in culture. The note with it: Human immunodeficiency virus 1, IIIB, MT4, read-out: IC50 against IIIb, RF, HE and NDK strains. As to the method: The compounds of the invention were tested in a screen by the MTT method (I Vixol Methods […] [1988]). MT-4 cells (2.5×10^4/well) were challenged with HIV-1 (HTLV-IIIB) or HIV-2 (LAV-2 ROD) at a concentration of 100 CCID50 and incubated in the presence of various concentrations of the test compounds, which were added immediately after challenge with the virus. After 5 days culture at 37° C. in a CO2 incubator, the number of viable cells was assessed by the MTT (tetrazolium) method. […] The potential therapeutic usefulness was assessed by calculating a Selectivity Index (SI) corresponding to the ratio of CC50 to IC50.

Series [3] can be described thus: Cytotoxicity by MTT method in MT-4 cells. Type of series: cell-based. The note with it: human. (In general: Formazan colour is commonly taken as a measure of viable cells.)
Series [4] deals with low-passage primary clinical isolates of HIV-1 (K31, D370, K6/2). The note with it: primary T4 cells; isolates K31 Zaire, D370 California, K6/2 Germany. As to the method:
Primary T4 lymphocytes were purified from human spleens obtained from healthy donors by using a commercial kit (“Lympho-Kwik”) which combines reaction of cells with specific monoclonal antibodies and density gradient centrifugation to separate the cells. […] Cells were stimulated with 2 μg/ml PHA for 24 hours. Then they were spun down and infected with HIV-1, strain IIIb, by suspending the cells 10-fold concentrated in virus solution. Adsorption was allowed for 2 hours at 37° C. The inoculum was removed by centrifugation and the cells were re-suspended at their original concentration in fresh culture medium containing IL-2 (40 IE/ml). Test compound was added after stimulation and virus adsorption. Every 3 to 4 days post infection half of the supernatant of the infected cultures was removed and replaced by fresh medium containing the test compound at the particular concentration, The concentration of vital p24 antigen was determined in the supernatent by means of a commercial ELISA kit (Coulter) and served as a parameter for virus production.

In another series the test system is gp120/41 mediated fusion. The note with it: HIV-1 IIIb infected HUT78 cells with MOLT4 cells. From the text:
Syncytium formation between chronically infected cells and uninfected cells reflects the gp120/41 mediated fusion process of vital entry.

The test system of another series is HUT78 cells. The note with it: concentrations below 300 μg/ml; cell numbers 2, 3 and 4 days after seeding.
The subject of a further series is HIV-2 (LAV-2 ROD). The series can be described thus: MTT anti-viral screen, MT-4 cells challenged with HIV-2. The settings on record: Human immunodeficiency virus 2, MT4, 120 h, read-out: IC50 HIV-2 (ROD). The format is cell-based.
The mark [5] stands for this setting: Lymphocytes, HIV-1 IIIb, p24, day 11 post infection.
Where [6] appears, read: Lymphocytes, HIV-1 IIIb, p24, day 14 post infection.
The mark [7] stands for this setting: Monocytes, HIV-1 BaL, p24, day 11 post infection.
The mark [8] stands for this setting: Monocytes, HIV-1 BaL, p24, day 14 post infection.
The mark [9] stands for this setting: concentrations below 300 μg/ml, cell numbers 2, 3 and 4 days after seeding.

On to `CC(C)(C)NC(=O)[C@@H]1C[C@@H]2CCCC[C@@H]2CN1C[C@@H](O)[C@H](Cc1ccccc1)NC(=O)[C@H](CC(N)=O)NC(=O)c1ccc2ccccc2n1` [Ro31-8959], for which, in series [1], the “resistance of viral RNA to degradation by RNase” value was “did not show this increased resistance”. Moreover, the “n, hours addition could be delayed after infection without loss of activity” value with HIV-1 strain IIIb stood at 12 h.

Turning to `Cc1cn([C@H]2C[C@H](N=[N+]=[N-])[C@@H](CO)O2)c(=O)[nH]c1=O` [AZT, reference compound], the TC50 worked out at 23000 ng/mL (≈ 86100 nM) in the series with MT4 cells (MT4), 5000 ng/mL (≈ 18700 nM) in the series with U937 cell line (U937), 37000 ng/mL (≈ 138000 nM) in the series on MOLT4 cells (MOLT4) and 184000 ng/mL (≈ 689000 nM) in the series on Jurkat cells (Jurkat). In addition, the “IC50 day 11” value with HIV-1, strain IIIb (setting [5]) came to 0.45 ng/mL (≈ 1.68 nM); in the series on HIV-1, BaL (setting [7]), 1 ng/mL (≈ 3.74 nM). In addition, the “IC90 day 11” value in the series with HIV-1, strain IIIb (setting [5]) amounted to 2.2 ng/mL (≈ 8.23 nM); in the series on HIV-1, BaL (setting [7]), 1.5 ng/mL (≈ 5.61 nM). Moreover, the “IC50 day 14” value was found to be 0.43 ng/mL (≈ 1.61 nM) in the series on HIV-1, strain IIIb (setting [6]) and 1 ng/mL (≈ 3.74 nM) in the series with HIV-1, BaL (setting [8]). Also, the “IC90 day 14” value with HIV-1, strain IIIb (setting [6]) stood at 1.1 ng/mL (≈ 4.12 nM); in the series on HIV-1, BaL (setting [8]), 1.7 ng/mL (≈ 6.36 nM). In addition, the “CC50 (HIV-1 (IIIB))” value in the series with MT-4 cells was over 1000 ng/mL. Also, the “IC50 HIV-1 (IIIB)” value in the series on HIV-1 (HTLV-IIIB) was under 8 ng/mL. For the same compound, in the series with HIV-1 strain IIIb, the “n, hours addition could be delayed after infection without loss of activity” value is about 4 h.

For the compound `c1cc(CN2CCCNCCNCCCNCC2)ccc1CN1CCCNCCNCCCNCC1` [Compound B, 1,1′-[1,4-phenylenebis(methylene)]bis-1,4,8,11-tetraazacyclotetradecane], the “inhibition of cell growth” value in the series on MT4 cells (setting [9]), with U937 cell line (setting [9]), in the series on MOLT4 cells (setting [9]), in the series on Jurkat cells (setting [9]) and in the series on HUT78 cells was “did not inhibit growth” each time. The IC90 – broadly, the concentration needed for an effect of 90% – with HIV-1, strain IIIb (Human immunodeficiency virus 1, IIIB, Lymphocyte, primary T4 lymphocytes, stated for both primary cell types, read-out: IC90 values) is 1 to 2 ng/mL (≈ 1.99 to 3.98 nM); with HIV-1, strain IIIb (Human immunodeficiency virus 1, Lymphocyte, 264 h, Lymphocytes, HIV-1 IIIb, p24, day 11 post infection, read-out: IC90 day 11) it was under 1 ng/mL; with HIV-1, strain IIIb (Human immunodeficiency virus 1, Lymphocyte, 336 h, Lymphocytes, HIV-1 IIIb, p24, day 14 post infection, read-out: IC90 day 14), 1 ng/mL (≈ 1.99 nM); with HIV-1, BaL (Human immunodeficiency virus 1, BAL, Monocyte, primary monocytes, stated for both primary cell types, read-out: IC90 values), 1 to 2 ng/mL (≈ 1.99 to 3.98 nM); with HIV-1, BaL (Human immunodeficiency virus 1, Monocyte, 264 h, Monocytes, HIV-1 BaL, p24, day 11 post infection, read-out: IC90 day 11), 1.9 ng/mL (≈ 3.78 nM); with HIV-1, BaL (Human immunodeficiency virus 1, Monocyte, 336 h, Monocytes, HIV-1 BaL, p24, day 14 post infection, read-out: IC90 day 14), 2.1 ng/mL (≈ 4.18 nM). The IC50 (usually the concentration that gives 50% inhibition) in the series on HIV-1, strain IIIb (Human immunodeficiency virus 1, Lymphocyte, 264 h, Lymphocytes, HIV-1 IIIb, p24, day 11 post infection, read-out: IC50 day 11) was under 1 ng/mL; in the series with HIV-1, strain IIIb (Human immunodeficiency virus 1, Lymphocyte, 336 h, Lymphocytes, HIV-1 IIIb, p24, day 14 post infection, read-out: IC50 day 14), under 1 ng/mL; with HIV-1, BaL (Human immunodeficiency virus 1, Monocyte, 264 h, Monocytes, HIV-1 BaL, p24, day 11 post infection, read-out: IC50 day 11), under 1 ng/mL; with HIV-1, BaL (Human immunodeficiency virus 1, Monocyte, 336 h, Monocytes, HIV-1 BaL, p24, day 14 post infection, read-out: IC50 day 14), 1.1 ng/mL (≈ 2.19 nM); in series [2] it was 2 to 5 ng/mL (≈ 3.98 to 9.94 nM); with HIV-1 (HTLV-IIIB) (Human immunodeficiency virus 1, IIIB, MT4, 120 h, read-out: IC50 HIV-1 (IIIB)) it was 6 ng/mL (≈ 11.9 nM). Moreover, the IC50 with HIV-2 (LAV-2 ROD) was under 10 ng/mL. Moreover, the “resistance of viral RNA to degradation by RNase” value in series [1] was “showed resistance to degradation by RNaseA”. Moreover, the CC50 at 5 days in series [3] (CC50 (HIV-1 (IIIB))) and in [3] (CC50 (HIV-2 (ROD))) was over 500000 ng/mL throughout. The “inhibition of viral replication” value in series [4] is given as “strong inhibitor”. Besides, the “concentrations required for inhibition of fusion (syncytium formation)” value with gp120/41 mediated fusion is “approximately 1 μg/ml”.
